System: KRAS PDC tumor spheroids (HUVEC+MSC), viability
Experiment: Anticancer human tumor 254851-301-R-J1-PDC patient-derived colon carcinoma cell line growth inhibition [KRAS2]
Details: for IC50: curve of first compound; for viability, T/C: stronger effect = lower value
How it was run: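 Combination screen of spheroid viability in tumor-cell co-cultures with endothelial (HUVEC) and mesenchymal stem cell stroma. Each agent was tested in half-log dilutions, topping at clinical Cmax or at 10 microM without a known Cmax.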

[1] = second compound 0.1 µM, first compound 0.01 µM
[2] = second compound 0.1 µM, first compound 0.0316 µM
[3] = second compound 0.1 µM, first compound 0.1 µM
[4] = second compound 0.1 µM, first compound 0.316 µM
[5] = second compound 0.1 µM, first compound 1 µM
[6] = second compound 0.1 µM, first compound 3.16 µM
[7] = second compound 0.316 µM, first compound 0.01 µM
[8] = second compound 0.316 µM, first compound 0.0316 µM
[9] = second compound 0.316 µM, first compound 0.1 µM
[10] = second compound 0.316 µM, first compound 0.316 µM
[11] = second compound 0.316 µM, first compound 1 µM
[12] = second compound 0.316 µM, first compound 3.16 µM
[13] = second compound 1 µM, first compound 0.01 µM
[14] = second compound 1 µM, first compound 0.0316 µM
[15] = second compound 1 µM, first compound 0.1 µM
[16] = second compound 1 µM, first compound 0.316 µM
[17] = second compound 1 µM, first compound 1 µM
[18] = second compound 1 µM, first compound 3.16 µM
[19] = second compound 3.16 µM, first compound 0.01 µM
[20] = second compound 3.16 µM, first compound 0.0316 µM
[21] = second compound 3.16 µM, first compound 0.1 µM
[22] = second compound 3.16 µM, first compound 0.316 µM
[23] = second compound 3.16 µM, first compound 1 µM
[24] = second compound 3.16 µM, first compound 3.16 µM
[25] = second compound 10 µM, first compound 0.01 µM
[26] = second compound 10 µM, first compound 0.0316 µM
[27] = second compound 10 µM, first compound 0.1 µM
[28] = second compound 10 µM, first compound 0.316 µM
[29] = second compound 10 µM, first compound 1 µM
[30] = second compound 10 µM, first compound 3.16 µM
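Also: spheroids exposed to compounds for seven days before readout.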
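For viability, T/C in this document: 100% = DMSO vehicle control luminescence of the spheroids.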

| SMILES | IC50 (second compound 0.1 µM) [µM] | IC50 (second compound 0.316 µM) [µM] | IC50 (second compound 1 µM) [µM] | IC50 (second compound 3.16 µM) [µM] | IC50 (second compound 10 µM) [µM] | viability, T/C [1] [%] | viability, T/C [2] [%] | viability, T/C [3] [%] | viability, T/C [4] [%] | viability, T/C [5] [%] | viability, T/C [6] [%] | viability, T/C [7] [%] | viability, T/C [8] [%] | viability, T/C [9] [%] | viability, T/C [14] [%] | viability, T/C [15] [%] | viability, T/C [20] [%] | viability, T/C [21] [%] | viability, T/C [26] [%] | viability, T/C [27] [%] | further results |
| --- | --- | --- | --- | --- | --- | --- | --- | --- | --- | --- | --- | --- | --- | --- | --- | --- | --- | --- | --- | --- | --- |
| CC1COCCN1c1cc(-c2ccnn2C)c2ccnc(-c3ccn[nH]3)c2n1 (centres undefined) + CNCc1ccccc1-c1csc(C(C)Nc2nc(C)nc3cc(OC)c(OC)cc23)c1 | 0.278 | 0.217 | 0.252 | < 0.01 | < 0.01 | 107 | 103 | 60.1 | 50.7 | 36 | 20.1 | 91.9 | 93.9 | 64.4 | 93.4 | 70.4 | 35.2 | 31.2 | 0.08 | 0.07 | viability, T/C [10]: 42.9%; viability, T/C [11]: 34.3%; viability, T/C [12]: 25.9%; viability, T/C [13]: 95.5%; viability, T/C [16]: 44.9%; viability, T/C [17]: 31%; viability, T/C [18]: 24.1%; viability, T/C [19]: 44.1%; viability, T/C [22]: 14.6%; viability, T/C [23]: 26.8%; viability, T/C [24]: 17%; viability, T/C [25]: 0.08%; viability, T/C [28]: 0.99%; viability, T/C [29]: 0.07%; viability, T/C [30]: 0.12% |
| CN(C)C/C=C/C(=O)Nc1cc2c(Nc3ccc(F)c(Cl)c3)ncnc2cc1O[C@H]1CCOC1 + COc1cc2nc(C)nc(NC(C)c3cc(N)cc(C(F)(F)F)c3)c2cc1OC1CCOC1 | > 0.1 | > 0.1 | > 0.1 | > 0.1 | > 0.1 | 102 | 96.5 | 75.3 |  |  |  | 87.9 | 88 | 74.7 | 85.9 | 81.7 | 84.6 | 63.5 | 65.9 | 59.5 | viability, T/C (second compound 0.1 µM, first compound 0.000316 µM): 104%; viability, T/C (second compound 0.1 µM, first compound 0.001 µM): 110%; viability, T/C (second compound 0.1 µM, first compound 0.00316 µM): 108%; viability, T/C (second compound 0.316 µM, first compound 0.000316 µM): 102%; viability, T/C (second compound 0.316 µM, first compound 0.001 µM): 102%; viability, T/C (second compound 0.316 µM, first compound 0.00316 µM): 91.9%; viability, T/C (second compound 1 µM, first compound 0.000316 µM): 99.5%; viability, T/C (second compound 1 µM, first compound 0.001 µM): 101%; viability, T/C (second compound 1 µM, first compound 0.00316 µM): 92.7%; viability, T/C [13]: 81.8%; viability, T/C (second compound 3.16 µM, first compound 0.000316 µM): 91%; viability, T/C (second compound 3.16 µM, first compound 0.001 µM): 85.3%; viability, T/C (second compound 3.16 µM, first compound 0.00316 µM): 89.7%; viability, T/C [19]: 78.7%; viability, T/C (second compound 10 µM, first compound 0.000316 µM): 78.2%; viability, T/C (second compound 10 µM, first compound 0.001 µM): 78.9%; viability, T/C (second compound 10 µM, first compound 0.00316 µM): 81.6%; viability, T/C [25]: 82.9% |
| CC1COCCN1c1cc(-c2ccnn2C)c2ccnc(-c3ccn[nH]3)c2n1 (centres undefined) |  |  |  |  |  |  |  |  |  |  |  |  |  |  |  |  |  |  |  |  | viability, T/C (compound 0.01 µM): 99.3% [middle of 5 runs]; viability, T/C (compound 0.316 µM): 47.7% [middle of 5 runs]; viability, T/C (compound 1 µM): 38.6% [middle of 5 runs]; viability, T/C (compound 3.16 µM): 24.1% [middle of 5 runs] |
| COc1cc(Nc2ncc3c(n2)-c2ccc(Cl)cc2C(c2c(F)cccc2OC)=NC3)ccc1C(=O)O + CC1OCC2(CCN(c3cnc(Sc4ccnc(N)c4Cl)c(N)n3)CC2)C1N | 0.0875 | 0.079 | 0.0764 | 0.0614 | 0.0414 |  | 91.7 | 39.8 | 28.8 | 24.9 | 17.1 |  | 81.1 | 37 | 86.1 | 33.1 | 70.9 | 30.7 | 58.1 | 23.1 | viability, T/C (second compound 0.1 µM, first compound 10 µM): 7.2%; viability, T/C [10]: 28.2%; viability, T/C [11]: 22.6%; viability, T/C [12]: 13.8%; viability, T/C (second compound 0.316 µM, first compound 10 µM): 6.88%; viability, T/C [16]: 29.1%; viability, T/C [17]: 23.1%; viability, T/C [18]: 14.6%; viability, T/C (second compound 1 µM, first compound 10 µM): 7.07%; viability, T/C [22]: 23.9%; viability, T/C [23]: 21.7%; viability, T/C [24]: 12.3%; viability, T/C (second compound 3.16 µM, first compound 10 µM): 5.89%; viability, T/C [28]: 21.1%; viability, T/C [29]: 19.8%; viability, T/C [30]: 13.8%; viability, T/C (second compound 10 µM, first compound 10 µM): 6.31% |

Source: PubChem BioAssay AID1963868 (Molecular Pharmacology Branch, DTP, NCI, 2024)
